Source: patent US12605353B2, “PDIA4 inhibitors and use thereof for inhibiting β-cell pathogenesis and treating diabetes” (Academia Sinica, priority 2019, dated 2026)

Molecular target: T1, PDIA4 (Homo sapiens, UniProt P13667)
T1 sequence (P13667 21-645): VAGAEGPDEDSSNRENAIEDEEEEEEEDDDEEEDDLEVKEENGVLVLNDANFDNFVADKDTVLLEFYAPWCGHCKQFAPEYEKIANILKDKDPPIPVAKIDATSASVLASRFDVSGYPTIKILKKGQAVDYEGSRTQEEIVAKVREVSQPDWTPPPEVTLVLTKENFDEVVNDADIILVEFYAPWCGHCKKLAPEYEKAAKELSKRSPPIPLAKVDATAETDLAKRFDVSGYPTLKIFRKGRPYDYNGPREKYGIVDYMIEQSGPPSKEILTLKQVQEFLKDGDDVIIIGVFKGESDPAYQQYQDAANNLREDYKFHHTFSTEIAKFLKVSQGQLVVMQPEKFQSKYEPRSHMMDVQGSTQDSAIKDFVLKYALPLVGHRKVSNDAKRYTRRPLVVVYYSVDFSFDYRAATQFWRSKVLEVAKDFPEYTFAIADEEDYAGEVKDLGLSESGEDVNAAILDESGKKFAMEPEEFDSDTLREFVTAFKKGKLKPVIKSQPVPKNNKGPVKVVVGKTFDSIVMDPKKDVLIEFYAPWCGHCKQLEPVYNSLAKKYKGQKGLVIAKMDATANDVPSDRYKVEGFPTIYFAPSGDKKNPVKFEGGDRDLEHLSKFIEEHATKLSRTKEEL
Test: biochemical
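Further: enzymatic activity of PDIA4 read as absorbance at 595 nm, inhibition given as percent decrease relative to vehicle-treated control.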
Protocol: Recombinant PDI proteins PDIA4 (23 pM) was incubated with insulin (0.2 mM) and DTT (0.1 mM) in the presence of vehicle and compounds at the indicated doses for 30 min at 25° C. The mixture was, measured using a SpectraMax i3x reader at 595 nm based on the manufacturer's instructions (Molecular device, CA, USA). Inhibition of the enzymatic activity PDIA4 is calculated by the formula, 100%×(OD595 of vehicle−OD595 of CP)/(OD595 of vehicle) as published previously.

Structure (SMILES) | IC50
C#CC(=O)Nc1ccc(O)c(C(=O)O)c1 [C14, 2-hydroxy-5-propiolamidobenzoic acid] | 55.7 µM
OCC#CC(O)c1ccccc1 (stereo not shown) [C7, 1-phenylbut-2-yne-1,4-diol] | > 1000 µM
O=C(OCC#CC#CCOC(=O)c1ccccc1)c1ccccc1 [C10, hexa-2,4-diyne-1,6-diyl dibenzoate] | > 1000 µM
CC#CC#C/C=C1/C=CC(=O)O1 [C2, (Z)-5-(hexa-2,4-diyn-1-ylidene)furan-2(5H)-one] | 96.5 µM
C#CC(=O)OC(=O)c1cc(OC)c(OC)c(OC)c1N [compound 22, 2-amino-3,4,5-trimethoxybenzoic propiolic anhydride] | 4.3 µM
C#CC(=O)Nc1cc(OC)c(OCCC)cc1C(=O)OCCC [compound 43, propyl 4-methoxy-2-propiolamido-5-propoxybenzoate] | 431 µM
C#CC(=O)OC(=O)c1cc(OCCC)c(OC)cc1N [compound 45, 2-amino-4-methoxy-5-propoxybenzoic propiolic anhydride] | 1 µM
COc1cc(N)c(C(=O)O)cc1OC [compound 9, 2-amino-4,5-dimethoxybenzoic acid] | > 1000 µM
C#CC(=O)Nc1ccc(C(=O)NCC(=O)O)cc1 [C11, (4-propiolamidobenzoyl)glycine] | 27.6 µM
C#CC(=O)Nc1cc(OCCC)c(OCCC)cc1C(=O)OCCC [compound 30, propyl 2-propiolamido-4,5-dipropoxybenzoate] | > 300 µM
CC#CCNc1ccc(NC(C)=O)cc1 [C8, N-(4-(but-2-yn-1-ylamino)phenyl)acetamide] | > 1000 µM
C#CC(=O)Nc1cc(OC)c(OCCCN(C(=O)C#C)C(=O)Cc2cccc(OC)c2)cc1C(=O)OC [58n, methyl 4-methoxy-5-(3-(N-(2-(3-methoxyphenyl)acetyl)propiolamido)propoxy)-2-propiolamidobenzoate] | 1.4 µM
C#CC(=O)Nc1cc(OC)c(OCCCN(C(=O)C#C)C(=O)c2ccccc2)cc1C(=O)O [compound 40, 4-methoxy-2-propiolamido-5-(3-(N-propioloylbenzamido)propoxy)benzoic acid] | 3.9 µM
C#CC(=O)Nc1cc(OC)c(OCCCN(C(=O)C#C)C(=O)Cc2cccc(Cl)c2)cc1C(=O)OC [58r, methyl 5-(3-(N-(2-(3-chlorophenyl)acetyl)propiolamido)propoxy)-4-methoxy-2-propiolamidobenzoate] | 1.6 µM
C#CC(=O)Nc1cc(OC)c(OCCCN(C(=O)C#C)C(=O)Cc2ccc(F)cc2)cc1C(=O)OC [58l] | 1.4 µM
C#CC(=O)Nc1cc(OC)c(OCCCN(C(=O)C#C)C(=O)c2ccc(F)cc2)cc1C(=O)OC [58d, methyl 5-(3-(4-fluoro-N-propioloylbenzamido)propoxy)-4-methoxy-2-propiolamidobenzoate] | 2.4 µM
C#CC(=O)OC(=O)c1cc(OCc2ccccc2)c(OC)cc1N [compound 16, 2-amino-5-(benzyloxy)-4-methoxybenzoic propiolic anhydride] | 13.3 µM
C#CC(=O)Nc1c(C(=O)OC)cc(OC)c(OC)c1OC [compound 20, methyl 3,4,5-trimethoxy-2-propiolamidobenzoate] | 42.5 µM
COC(=O)c1cc(OC)c(OC)cc1N [compound 3, methyl 2-amino-4,5-dimethoxybenzoate] | > 1000 µM

Structure (SMILES) | IC50
COC(=O)c1cc(OCCCN)c(OC)cc1[N+](=O)[O-] [compound 55, methyl 5-(3-aminopropoxy)-4-methoxy-2-nitrobenzoate] | > 1000 µM
CC#CC#C/C=C1\C=CC2(OC=CC2OC(=O)C=C(C)C)O1 (stereo not shown) [C6, (E)-7-(hexa-2,4-diyn-1-ylidene)-1,6-dioxaspiro[4,4]nona-2,8-dien-4-yl 3-methylbut-2-enoate] | 753 µM
C#CC(=O)Nc1cc(OC)c(OCCCN(C(=O)C#C)C(=O)Cc2ccc(OC)cc2)cc1C(=O)OC [58o, methyl 4-methoxy-5-(3-(N-(2-(4-methoxyphenyl)acetyl)propiolamido)propoxy)-2-propiolamidobenzoate] | 2.1 µM
C#CC(=O)N(c1ccc(OC)cc1OC)C(C(=O)NCC(=O)OCC)c1cccs1 (stereo not shown) [C5, ethyl (2-(N-(2,4-dimethoxyphenyl)propiolamido)-2-(thiophen-2-yl)acetyl)glycinate] | 760 µM
C#CC(=O)Nc1cc(OC)c(OCCCNC(=O)OC(C)(C)C)cc1C(=O)OC [compound 61, Methyl 5-(3-((tert-butoxycarbonyl)amino)propoxy)-4-methoxy-2-propiolamidobenzoate] | 4.7 µM
COC(=O)c1cc(OC)c(OC)c(OC)c1N [compound 19, methyl 2-amino-3,4,5-trimethoxybenzoate] | > 1000 µM
C#CC(=O)Nc1cc(OC)c(OCCCN(C(=O)C#C)C(=O)c2cccc(OC)c2)cc1C(=O)OC [58g] | 3.3 µM
CC#CC#CC#CC#CCCC(O)CO (stereo not shown) [CPD P2, cytopiloyne aglycone, reference compound] | 168 µM
CCCOc1cc(C(=O)O)c(N)cc1OC [compound 44, 2-amino-4-methoxy-5-propoxybenzoic acid] | > 1000 µM
C#CC(=O)Nc1cc(OC)c(OCCCN(C(=O)C#C)C(=O)Cc2ccccc2)cc1C(=O)OC [58i, methyl 4-methoxy-5-(3-(N-(2-phenylacetyl)propiolamido)propoxy)-2-propiolamidobenzoate] | 1.9 µM
C#CC(=O)Nc1cc(OCCC)c(OCCC)cc1C(=O)OC [compound 29, methyl 2-propiolamido-4,5-dipropoxybenzoate] | > 300 µM
C#CC(=O)Nc1cc(OC)c(OC)cc1C(=O)OCC[Si](C)(C)C [compound 7, 2-(trimethylsilyl)ethyl 4,5-dimethoxy-2-propiolamidobenzoate] | 78.7 µM
O=C(Cc1ccccc1)OCC#CC#CCOC(=O)Cc1ccccc1 [C9, hexa-2,4-diyne-1,6-diyl bis(2-phenylacetate)] | > 1000 µM
COc1cc(C(=O)O)c(N)c(OC)c1OC [compound 21, 2-amino-3,4,5-trimethoxybenzoic acid] | > 1000 µM
C#CC(=O)Nc1cc(OC)c(OCCCN(C(=O)C#C)C(=O)c2ccccc2F)cc1C(=O)OC [58b, methyl 5-(3-(2-fluoro-N-propioloylbenzamido)propoxy)-4-methoxy-propiolamidobenzoate] | 4.2 µM
C#CC(=O)Nc1cc(OC)c(OCCCN2C(=O)c3ccccc3C2=O)cc1C(=O)OC [50b, methyl 5-(3-(1,3-dioxoisoindolin-2-yl)propoxy)-4-methoxy-2-propiolamidobenzoate] | 4.3 µM
C#CC(=O)Nc1ccc(CC(=O)O)cc1 [C12, 2-(4-propiolamidophenyl)acetic acid] | 92.1 µM
C#CC(=O)OC(=O)c1cc(OC)c(OC)cc1N [compound 10, 2-amino-4,5-dimethoxybenzoic propiolic anhydride] | 1.6 µM
